Like-named read-outs stand apart in the source and are kept apart here.
Key:
Experiment in all cases: biochemical
Design in all cases: KINOMEscan scanMAX competition binding, DNA-tagged kinases, qPCR read-out, percent control at 300 nM
TRKB = molecular target: T1, TRKB (Homo sapiens, UniProt Q16620)
T1 construct: gene NTRK2

LATS2 = molecular target: T2, LATS2 (Homo sapiens, UniProt Q9NRM7)
T2 sequence (Q9NRM7 1-1088): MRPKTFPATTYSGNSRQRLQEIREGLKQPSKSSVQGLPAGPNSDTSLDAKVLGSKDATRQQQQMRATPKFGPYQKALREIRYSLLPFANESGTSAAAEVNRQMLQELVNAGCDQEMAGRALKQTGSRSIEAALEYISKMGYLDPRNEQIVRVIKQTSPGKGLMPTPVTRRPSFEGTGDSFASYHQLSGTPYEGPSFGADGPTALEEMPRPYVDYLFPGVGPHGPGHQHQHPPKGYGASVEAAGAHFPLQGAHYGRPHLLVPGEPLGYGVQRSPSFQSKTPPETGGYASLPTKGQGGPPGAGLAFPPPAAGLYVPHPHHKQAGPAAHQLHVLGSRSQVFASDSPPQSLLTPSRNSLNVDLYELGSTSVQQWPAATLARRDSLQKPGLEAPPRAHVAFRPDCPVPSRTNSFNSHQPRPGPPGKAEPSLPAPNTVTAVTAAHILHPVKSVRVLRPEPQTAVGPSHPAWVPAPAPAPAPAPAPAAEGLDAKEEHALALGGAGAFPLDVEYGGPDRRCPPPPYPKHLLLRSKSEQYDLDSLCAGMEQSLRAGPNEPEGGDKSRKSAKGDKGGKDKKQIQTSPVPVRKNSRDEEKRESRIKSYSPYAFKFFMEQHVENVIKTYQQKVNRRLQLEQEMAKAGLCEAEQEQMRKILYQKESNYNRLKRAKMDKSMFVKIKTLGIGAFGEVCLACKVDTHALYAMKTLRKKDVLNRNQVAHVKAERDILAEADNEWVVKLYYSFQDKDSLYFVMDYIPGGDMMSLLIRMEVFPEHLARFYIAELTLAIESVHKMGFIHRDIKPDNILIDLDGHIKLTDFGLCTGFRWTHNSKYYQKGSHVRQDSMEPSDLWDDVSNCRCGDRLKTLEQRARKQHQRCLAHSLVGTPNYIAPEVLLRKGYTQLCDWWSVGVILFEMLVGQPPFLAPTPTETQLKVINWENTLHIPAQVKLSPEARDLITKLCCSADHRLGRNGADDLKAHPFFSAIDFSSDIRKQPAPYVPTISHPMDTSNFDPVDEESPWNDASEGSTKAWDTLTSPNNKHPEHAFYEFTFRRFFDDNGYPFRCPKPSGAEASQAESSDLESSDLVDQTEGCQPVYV

TAOK1 = molecular target: T3, TAOK1 (Homo sapiens, UniProt Q7L7X3)
T3 sequence (Q7L7X3 1-1001): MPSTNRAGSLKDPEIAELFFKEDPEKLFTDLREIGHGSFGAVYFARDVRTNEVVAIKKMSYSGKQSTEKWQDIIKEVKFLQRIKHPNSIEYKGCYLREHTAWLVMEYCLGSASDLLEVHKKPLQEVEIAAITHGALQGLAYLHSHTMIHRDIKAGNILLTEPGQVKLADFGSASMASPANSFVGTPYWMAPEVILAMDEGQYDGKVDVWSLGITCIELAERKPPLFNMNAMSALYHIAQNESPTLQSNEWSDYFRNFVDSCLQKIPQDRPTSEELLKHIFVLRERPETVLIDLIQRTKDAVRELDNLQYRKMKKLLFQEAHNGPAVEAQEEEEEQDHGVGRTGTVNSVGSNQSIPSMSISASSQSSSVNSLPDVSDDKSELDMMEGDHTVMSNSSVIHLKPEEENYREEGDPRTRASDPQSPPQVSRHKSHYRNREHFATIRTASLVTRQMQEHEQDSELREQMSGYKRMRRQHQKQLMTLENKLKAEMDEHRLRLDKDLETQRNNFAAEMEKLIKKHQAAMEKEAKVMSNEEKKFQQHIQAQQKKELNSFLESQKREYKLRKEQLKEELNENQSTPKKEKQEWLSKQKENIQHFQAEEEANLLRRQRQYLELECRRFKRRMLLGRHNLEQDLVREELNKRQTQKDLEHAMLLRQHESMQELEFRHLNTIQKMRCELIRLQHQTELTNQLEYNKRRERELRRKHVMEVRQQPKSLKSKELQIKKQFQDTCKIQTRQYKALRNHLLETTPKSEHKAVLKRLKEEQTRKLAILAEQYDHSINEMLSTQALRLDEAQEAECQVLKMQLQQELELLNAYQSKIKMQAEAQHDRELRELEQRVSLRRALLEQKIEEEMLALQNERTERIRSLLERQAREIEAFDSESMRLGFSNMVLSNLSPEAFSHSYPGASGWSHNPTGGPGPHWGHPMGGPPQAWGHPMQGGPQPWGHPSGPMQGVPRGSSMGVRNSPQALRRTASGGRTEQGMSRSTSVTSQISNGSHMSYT

PAK7 = molecular target: T4, PAK7 (Homo sapiens, UniProt Q9P286)
T4 construct: gene PAK5
T4 sequence (Q9P286 whole entry): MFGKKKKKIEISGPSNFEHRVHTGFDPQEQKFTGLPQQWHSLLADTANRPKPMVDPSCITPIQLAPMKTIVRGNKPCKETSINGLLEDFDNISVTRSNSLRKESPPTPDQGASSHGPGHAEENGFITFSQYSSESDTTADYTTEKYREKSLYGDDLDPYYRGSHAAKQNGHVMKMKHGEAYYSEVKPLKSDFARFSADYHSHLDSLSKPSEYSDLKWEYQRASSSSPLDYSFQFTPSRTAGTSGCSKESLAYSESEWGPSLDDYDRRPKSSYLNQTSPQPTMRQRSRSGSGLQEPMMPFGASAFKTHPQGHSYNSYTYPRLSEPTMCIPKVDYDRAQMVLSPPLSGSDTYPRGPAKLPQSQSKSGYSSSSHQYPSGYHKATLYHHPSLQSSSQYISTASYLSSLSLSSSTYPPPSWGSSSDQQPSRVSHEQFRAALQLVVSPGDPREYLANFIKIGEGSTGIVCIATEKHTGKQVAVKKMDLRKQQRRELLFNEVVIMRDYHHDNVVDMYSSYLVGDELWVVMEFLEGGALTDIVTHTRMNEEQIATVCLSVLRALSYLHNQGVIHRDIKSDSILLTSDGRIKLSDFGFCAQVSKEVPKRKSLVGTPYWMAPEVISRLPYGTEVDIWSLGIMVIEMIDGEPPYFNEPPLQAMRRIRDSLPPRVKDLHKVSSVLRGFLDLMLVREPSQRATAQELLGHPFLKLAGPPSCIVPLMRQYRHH

NEK7 = NEK7 (Homo sapiens, UniProt Q8TDX7)
Sequence of NEK7 (Q8TDX7 whole entry): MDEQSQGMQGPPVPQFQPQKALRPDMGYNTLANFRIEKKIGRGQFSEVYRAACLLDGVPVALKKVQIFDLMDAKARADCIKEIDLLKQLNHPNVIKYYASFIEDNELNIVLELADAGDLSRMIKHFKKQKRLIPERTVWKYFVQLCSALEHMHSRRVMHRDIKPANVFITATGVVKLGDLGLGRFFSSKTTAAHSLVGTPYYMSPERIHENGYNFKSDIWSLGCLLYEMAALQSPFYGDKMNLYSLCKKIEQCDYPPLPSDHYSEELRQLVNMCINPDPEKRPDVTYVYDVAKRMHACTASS

[1] = read-out: Percent control / Tirabrutinib
[2] = read-out: Percent control / Zanubrutinib
[3] = read-out: Percent control / Acalabrutinib
[4] = read-out: Percent control / Ibrutinib

T1 sequence (Q16620 whole entry): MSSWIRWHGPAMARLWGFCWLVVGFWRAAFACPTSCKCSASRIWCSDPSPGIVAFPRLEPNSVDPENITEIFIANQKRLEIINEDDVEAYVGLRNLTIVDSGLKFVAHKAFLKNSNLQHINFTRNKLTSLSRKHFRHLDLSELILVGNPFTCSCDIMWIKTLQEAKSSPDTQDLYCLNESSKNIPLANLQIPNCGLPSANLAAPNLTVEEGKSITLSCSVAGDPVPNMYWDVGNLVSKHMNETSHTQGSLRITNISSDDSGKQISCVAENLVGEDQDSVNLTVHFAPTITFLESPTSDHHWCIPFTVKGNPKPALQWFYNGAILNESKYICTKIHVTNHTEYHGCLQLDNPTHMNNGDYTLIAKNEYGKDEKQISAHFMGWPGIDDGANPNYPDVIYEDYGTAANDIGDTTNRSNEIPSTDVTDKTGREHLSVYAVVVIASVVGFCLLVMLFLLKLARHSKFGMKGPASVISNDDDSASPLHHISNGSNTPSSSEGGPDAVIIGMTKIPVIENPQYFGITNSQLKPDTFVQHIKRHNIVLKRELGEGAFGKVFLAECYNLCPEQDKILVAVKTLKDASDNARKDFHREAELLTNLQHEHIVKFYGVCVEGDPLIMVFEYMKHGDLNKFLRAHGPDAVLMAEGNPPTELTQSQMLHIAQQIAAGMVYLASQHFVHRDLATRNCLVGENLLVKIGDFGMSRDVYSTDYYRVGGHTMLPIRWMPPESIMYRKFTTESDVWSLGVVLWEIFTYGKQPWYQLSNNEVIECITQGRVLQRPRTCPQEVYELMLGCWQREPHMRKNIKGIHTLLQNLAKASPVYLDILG

## CC#CC(=O)N1CC[C@@H](n2c(=O)n(-c3ccc(Oc4ccccc4)cc3)c3c(N)ncnc32)C1 [Tirabrutinib]
TRKB; [1]
  remaining binding at 0.3 µM: 79%
LATS2; [1]
  remaining binding at 0.3 µM: 92%
TAOK1; [1]
  remaining binding at 0.3 µM: 82%

## C=CC(=O)N1CCC([C@@H]2CCNc3c(C(N)=O)c(-c4ccc(Oc5ccccc5)cc4)nn32)CC1 [Zanubrutinib]
TRKB; [2]
  remaining binding at 0.3 µM: 94%
PAK7; [2]
  remaining binding at 0.3 µM: 87%
LATS2; [2]
  remaining binding at 0.3 µM: 82%
TAOK1; [2]
  remaining binding at 0.3 µM: 63%
NEK7; [2]
  remaining binding at 0.3 µM: 91%

## CC#CC(=O)N1CCC[C@H]1c1nc(-c2ccc(C(=O)Nc3ccccn3)cc2)c2c(N)nccn12 [Acalabrutinib]
PAK7; [3]
  remaining binding at 0.3 µM: 76%
LATS2; [3]
  remaining binding at 0.3 µM: 90%
NEK7; [3]
  remaining binding at 0.3 µM: 76%

## C=CC(=O)N1CCC[C@@H](n2nc(-c3ccc(Oc4ccccc4)cc3)c3c(N)ncnc32)C1 [Ibrutinib]
TRKB; [4]
  remaining binding at 0.3 µM: 76%
PAK7; [4]
  remaining binding at 0.3 µM: 94%
TAOK1; [4]
  remaining binding at 0.3 µM: 81%
NEK7; [4]
  remaining binding at 0.3 µM: 97%
